Measurements published in PMC7329864, “Role of water in cyclooxygenase catalysis and design of anti-inflammatory agents targeting two sites of the enzyme” (Scientific Reports, 2020).
pIC50: −log10 of the molar value. Read-outs that look alike come from different tables or passages of the source.

Legend:
Swiss albino mice [1] = test: Formalin induced pain (flinchings), analgesic activity and mechanistic pretreatments; type: in vivo
Description: (§1) Since it is known to produce biphasic pain response—the neurogenic pain and the inflammatory phase, 2% formalin injection was given in the right hind paw of the animals (20 µL) and the response was quantified by counting the number of flinching after 30 min of the compound 1 treatment. The inflammatory phase has been reported in the current investigation since the cyclooxygenase inhibitors are known to ameliorate the latter phase. The involvement of cyclooxygenase and lipooxygenase pathways was studied by pretreatment with substance P and nitric oxide pathway was studied by pretreatment with L-arginine and L-NAME as previously described. Anti-inflammatory activity was examined by using carageenan induced paw edema as per the previous report.
(§2) Swiss albino mice of either sex (25–35 g) were used for determining the analgesic and anti-inflammatory activity of the compounds. The animals were maintained at 22 ± 2 °C under 12 h light/12 h dark cycle with free supply of food and water. The study was approved by the IAEC of Guru Nanak Dev University, Amritsar, Punjab, India. A total of six groups of animals with 5 animals in each group were used. The experimental procedure as described in our previous report[52],[57] was used for studying the analgesic and anti-inflammatory activity of the compounds. All the treatments were given intraperitoneally (i.p.).
Mechanistic studies. Three groups of mice with 5 animals in each group were taken for exploring the inhibition of COX and LOX and modulation of nitric oxide pathway. For COX and LOX pathways, the animals were pretreated with substance P, 30 min before administering 1. For nitric oxide pathway, animals were pretreated with nitric oxide precursor, L-arginine and NOS inhibitor, L-NAME, 30 min before administering 1. The details of the protocols are described in previous reports[52],[57].

[2] = In-vivo pharmacokinetic studies
Description: Acute toxicity studies of 1 were carried out at 3 dose levels of 50 mg Kg^−1, 300 mg Kg^−1 and 2000 mg Kg^−1 by periodic monitoring for the first 24 h and daily monitoring for 14 days[56]. […] A few jumping movements were also observed. However, all these behaviours subsided after 60 min. […] Therefore, complying with the design and the results of in vitro studies, the in vivo experiments were gestured with the emergence of a new category of anti-inflammatory agents.
In-vivo Pharmacokinetic studies were performed as per the previously reported protocol.

Swiss albino mice [3] = test: Carageenan induced paw edema, anti-inflammatory activity; type: in vivo
Description: as §1, §2

COX-2 = target: T1, COX-2 (Homo sapiens, UniProt P35354); test: UV-Vis and fluorescence studies of interaction with COX-2; type: binding
T1 sequence (P35354 18-604): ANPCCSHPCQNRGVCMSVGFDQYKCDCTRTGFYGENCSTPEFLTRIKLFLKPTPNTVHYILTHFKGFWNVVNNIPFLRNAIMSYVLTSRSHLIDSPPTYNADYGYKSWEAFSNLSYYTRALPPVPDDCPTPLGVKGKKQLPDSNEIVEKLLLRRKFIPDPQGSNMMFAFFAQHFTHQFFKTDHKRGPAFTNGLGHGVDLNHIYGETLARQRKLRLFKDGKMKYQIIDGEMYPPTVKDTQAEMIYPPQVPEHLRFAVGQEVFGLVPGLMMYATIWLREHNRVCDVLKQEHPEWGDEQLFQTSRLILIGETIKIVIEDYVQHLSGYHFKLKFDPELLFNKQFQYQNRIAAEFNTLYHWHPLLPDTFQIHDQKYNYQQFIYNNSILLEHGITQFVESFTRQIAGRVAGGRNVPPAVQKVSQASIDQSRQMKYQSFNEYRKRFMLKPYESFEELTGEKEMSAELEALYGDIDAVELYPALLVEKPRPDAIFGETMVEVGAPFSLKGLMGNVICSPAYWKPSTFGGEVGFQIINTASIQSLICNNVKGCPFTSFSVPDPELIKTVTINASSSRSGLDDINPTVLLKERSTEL
Text: In order to support in-silico experiments, the interactions of 1, 13d and 15d with COX-2 were checked with UV–vis and fluorescence spectral techniques. […] The appearance of level-off in the visible region (500–700 nm) was attributed to the Mie scattering due to the formation of aggregates. […] Corroborating the results of molecular modelling studies, the changes in the UV–Vis spectra as well as the fluorescence spectrum of the compound on addition of COX-2 probably occurred due to the HOMO–LUMO interactions between 1 and the enzyme (Figure S26). The linear Stern–Volmer plot of decrease in fluorescence intensity at 567 nm on increasing COX-2 concentration gave Stern–Volmer constant Ksv 3.30 × 10^4 M^-1. The detection limit of the compound for COX-2 was 0.02 nM (Figure S26C,D).
In order to support in-silico experiments, the interactions of 1, 13d and 15d with COX-2 were checked with UV-vis and fluorescence spectral techniques. […] The appearance of level-off in the visible region (500-700 nm) was attributed to the Mie scattering due to the formation of aggregates. […] Corroborating the results of molecular modelling studies, the changes in the UV-Vis spectra as well as the fluorescence spectrum of the compound on addition of COX-2 probably occurred due to the HOMO-LUMO interactions between 1 and the enzyme (Figure S27). The linear Stern-Volmer plot of decrease in fluorescence intensity at 567 nm on increasing COX-2 concentration gave Stern-Volmer constant Ksv 3.30x10^4 M^-1. The detection limit of the compound for COX-2 was 0.02 nM (Figure 27C, 27D).

wt COX-2 = target: T2, wt COX-2 (Homo sapiens, UniProt P35354); test: COX inhibitory enzyme immunoassay (COX-2); type: biochemical
T2 construct: purchased Cayman Chemical Co. item no; 560131
T2 sequence (P35354 18-604): T1 sequence (P35354 18-604)
Description: All the compounds of Fig. 9 were screened for COX-1/2 inhibitory activity in triplicate at 10^–4–10^–8 M concentration by performing enzyme immunoassays. The activity of the compounds was quantified in terms of amount of prostaglandins produced by the enzymes in the presence of different concentrations of the compound.
For studying the COX-1, COX-2 inhibitory activities of the compounds, various reagents were prepared as per the protocol of the assays. The compounds were screened in triplicate at 10^–4–10^–8 M concentration using the procedure as described in the previous report.

O=C1NC(=O)C(=Cc2cn(CCCCCCn3c4ccccc4c(=O)c4ccccc43)c3ccccc23)C(=O)N1 [Compound 1]
reversal of formalin induced analgesia (Swiss albino mice [1]): 90%
number of flinchings in neurogenic and inflammatory phase of formalin induced pain (Swiss albino mice [1]; 10 mg kg^−1, i.p., 2% formalin 30 min after treatment, comparable to indomethacin): significant decrease
modulation (attenuation) of analgesic effect by L-NAME pretreatment (Swiss albino mice [1]; L-NAME (NOS inhibitor) 30 min before compound): did not
modulation of analgesic effect by L-arginine pretreatment (Swiss albino mice [1]; L-arginine (NO precursor) 30 min before compound): attenuated the analgesic effect of 1 partially
modulation of analgesic effect by Substance P pretreatment (Swiss albino mice [1]; Substance P 30 min before compound, complete reversal not evident): attenuated the analgesic effect
Cmax ([2]; Animal 1): 3150 nM
Tmax ([2]; Animal 1): 30 min
AUC(0-t) ([2]; Animal 1, read-out: AUC(0–1440 min) (converted)): 21.4 µM·h
half-life ([2]; Animal 1, read-out: T1/2): 671 min
Cmax ([2]; Animal 2): 2860 nM
Tmax ([2]; Animal 2): 15 min
AUC(0-t) ([2]; Animal 2, read-out: AUC(0–1440 min) (converted)): 19.7 µM·h
half-life ([2]; Animal 2, read-out: T1/2): 418 min
Cmax ([2]; Animal 3): 2600 nM
Tmax ([2]; Animal 3): 30 min
AUC(0-t) ([2]; Animal 3, read-out: AUC(0–1440 min) (converted)): 20.2 µM·h
half-life ([2]; Animal 3, read-out: T1/2): 521 min
Tmax ([2]; Mean): 25 min
AUC(0-t) ([2]; Mean, read-out: AUC(0–1440 min) (converted)): 20.4 µM·h
half-life ([2]; Mean, read-out: T1/2): 537 min
half-life ([2]; read-out: half life (T1/2) (converted)): ~540 min
reversal of carageenan induced inflammation (Swiss albino mice [3]): 90%
paw volume after carageenan injection (Swiss albino mice [3]; i.p., comparable to indomethacin): significant decrease
decrease in fluorescence intensity (quenching) in the presence of COX-2 (COX-2; addition of COX-2 in Tris–HCl buffer pH 7.25 to solution of compound): significant quenching
detection limit of the compound for COX-2 (COX-2; fluorescence intensity at 567 nm vs [COX-2], Tris–HCl buffer pH 7.25): 0.02 nM
Stern–Volmer constant Ksv (COX-2; fluorescence quenching at 567 nm by COX-2, 0.5 µM compound, Tris–HCl buffer pH 7.25): 33000 M⁻¹
pIC50 (wt COX-2; enzyme immunoassay, screened at 10^–4–10^–8 M, average of 3 experiments, SD ± 0.5 µM): 7.22
SI (IC50(COX-1)/IC50 (COX-2) (wt COX-2; selectivity index COX-1/COX-2): 1,000
